Marks after values point to notes of the source that are not given here.
Legend:
Assay type in all cases: cell-based
[1] = test system: HaCaT human keratinocyte cell line; experiment: UV B protection of HaCaT keratinocytes, oral application model (Protocol II)
Protocol: (§1) The protocol is based on evaluating the reduction in photo damage caused by UV A and UV B in HaCaT human keratinocyte cell line. The cell viability is measured by Sulphorhodamine B assay (SRB assay) after exposure to UV rays. The percentage of UV protection is calculated based on the number of viable cells in the control (untreated) and test HaCaT human keratinocytes (treated with the labdane-diterpenoids based composition of the present invention) after UV exposure. The photoprotection assays to screen compounds for their UV protection efficacy during topical and oral applications as discussed in J Am Acad Dermatol 2003; 49: 458-472 is adopted as a reference.
(§2) Protocol II—Screening compounds suited for oral applications for UV protection efficacy 0.5×10^4 HaCaT human keratinocyte cells/well are counted and seeded into a 96 well micro titer plates. The cells are incubated at 37° C. in 5% CO2 for 24 hours. The growth medium is then removed and replaced with medium containing varying concentrations of the labdane-diterpenoids based composition of the present invention. The cells are then incubated for 24 hours to be followed by UV treatment. The UV treated cells are further incubated for 48 hours after which, cell viability is determined using the SRB or neutral red uptake assays.
(§3) The UV A exposure in both the protocols involves three UV A bulbs providing 108 watts of power. The plates are exposed for 1 hour at a distance of 5 cm from the source of light. The UV B exposure in both the protocols involves three UV B bulbs which provide 100 μwatt/cm^2 or 0.14 J/cm^2 irradiation dose. The plates are exposed for 7 minutes at a distance of 30 cm from the source of light.

[2] = test system: HaCaT human keratinocyte cell line; experiment: UV B protection of HaCaT keratinocytes, topical application model (Protocol I, SRB viability); conditions: for % UV B protection as compared to control: Table B, Topical model
Protocol: as §1
(§4) Protocol I—Screening compounds suited for topical applications for UV protection efficacy 0.5×10^4 HaCaT human keratinocyte cells/well are counted and seeded into a 96 well micro titer plates. The cells are incubated at 37° C. in 5% CO2 for 24 hours. The growth medium is then removed and replaced with medium containing varying concentrations of the labdane-diterpenoids based composition of the present invention. The cells are immediately exposed to ultraviolet irradiation and further incubated for 72 hours. After 72 hours, the cell viability is determined by SRB assay.
as §3

[3] = test system: B16F1 mouse melanoma cells; experiment: Intracellular melanin enhancement; conditions: for melanin enhancement activity, comparison in words: Tables C and E; for Folds of Melanin Enhancement compared to control: Table E
Protocol: B16F1 mouse melanoma cells are treated with varying concentrations of actives I, II and III and other optional actives or combinations thereof at a time interval of 3 days for nine consecutive days. The intracellular melanin in both the controls and test B16F1 mouse melanoma cells is extracted by 1 N NaOH and subjected to a heat treatment at 100° C. The extracted melanin is estimated at 405 nm in a Fluostar Optima Microplate Reader.

[4] = test system: HaCaT human keratinocyte cell line; experiment: UV A protection of HaCaT keratinocytes, oral application model (Protocol II)
Protocol: as §1, §2, §3

[5] = test system: HaCaT human keratinocyte cell line; experiment: UV A protection of HaCaT keratinocytes, topical application model (Protocol I, SRB viability); conditions: for % UV A protection: Topical model
Protocol: as §1, §4, §3

[6] = summary in words, Table I, HaCaT, topical and oral protocols not separated

## C=C[C@@]1(C)CC(=O)[C@]2(O)[C@@]3(C)[C@@H](O)CCC(C)(C)[C@@H]3[C@H](O)[C@H](O)[C@@]2(C)O1 [Active I, 8,13-epoxy-1α,6β,7β,9α-tetrahydroxylabd-14-en-11-one]
[1]; 0.25 μg/ml
  % UV B protection: 15* %
[1]; 0.5 μg/ml
  % UV B protection: 35* %
[1]; 1 μg/ml
  % UV B protection: 65* %
[1]; 2 μg/ml
  % UV B protection: 80* %
[1]; 3 μg/ml
  % UV B protection: 91* %
[1]; 5 μg/ml
  % UV B protection: 97* %
[1]; 12 μg/ml
  % UV B protection: 98* %
[2]; 0.25 μg/ml
  % UV B protection as compared to control: 10%
[2]; 0.5 μg/ml
  % UV B protection as compared to control: 13%
[2]; 1 μg/ml
  % UV B protection as compared to control: 20* %
[2]; 2 μg/ml
  % UV B protection as compared to control: 35* %
[2]; 3 μg/ml
  % UV B protection as compared to control: 45* %
[2]; 5 μg/ml
  % UV B protection as compared to control: 50* %
[2]; 12 μg/ml
  % UV B protection as compared to control: 55* %
[2]; [6]
  UV protection UV B: Significant
[3]; 0.25 μg/ml
  No. of folds of Melanin Enhancement compared to control: 1.1 folds
[3]; 0.5 μg/ml
  No. of folds of Melanin Enhancement compared to control: 1.25 folds
[3]; 1 μg/ml
  No. of folds of Melanin Enhancement compared to control: 1.9* folds
[3]; 2 μg/ml
  No. of folds of Melanin Enhancement compared to control: 2.8* folds
[3]; 3 μg/ml
  No. of folds of Melanin Enhancement compared to control: 3.2* folds
[3]; 5 μg/ml
  No. of folds of Melanin Enhancement compared to control: 3.8* folds
[3]; 12 μg/ml
  No. of folds of Melanin Enhancement compared to control: 4.2* folds
[3]
  melanin enhancement activity, comparison in words: more than active II or active III
[3]; mouse
  dose levels still tolerated and effective, relative to the maximum tolerated dose levels of active III: 2.4 times
[3]; summary in words, Table I
  Melanin enhancement: Significant
[4]; 0.25 μg/ml
  % UV A protection: 24* %
[4]; 0.5 μg/ml
  % UV A protection: 29* %
[4]; 1 μg/ml
  % UV A protection: 58* %
[4]; 2 μg/ml
  % UV A protection: 82* %
[4]; 3 μg/ml
  % UV A protection: 98* %
[4]; 5 μg/ml
  % UV A protection: 97* %
[4]; 12 μg/ml
  % UV A protection: 98* %
[5]; 0.25 μg/ml
  % UV A protection: 14%
[5]; 0.5 μg/ml
  % UV A protection: 16%
[5]; 1 μg/ml
  % UV A protection: 19%
[5]; 2 μg/ml
  % UV A protection: 31* %
[5]; 3 μg/ml
  % UV A protection: 42* %
[5]; 5 μg/ml
  % UV A protection: 49* %
[5]; 12 μg/ml
  % UV A protection: 59* %
[5]; [6]
  UV protection UV A: Significant

## COc1c2ccoc2cc2oc(=O)ccc12 [Active 5-MOP, 5-methoxy psoralen]
[3]; 0.25 μg/ml
  Folds of Melanin Enhancement compared to control: 1.1 Folds
[3]; 0.5 μg/ml
  Folds of Melanin Enhancement compared to control: 1.15 Folds
[3]; 1 μg/ml
  Folds of Melanin Enhancement compared to control: 1.5* Folds
[3]; 2 μg/ml
  Folds of Melanin Enhancement compared to control: toxic
[3]; 3 μg/ml
  Folds of Melanin Enhancement compared to control: toxic
[3]; 5 μg/ml
  Folds of Melanin Enhancement compared to control: toxic
[3]; 12 μg/ml
  Folds of Melanin Enhancement compared to control: toxic
[3]
  melanin enhancement activity, comparison in words: comparable to active III but inferior to active I

## C=CC1(C)CC(=O)C2C3(C)CCCC(C)(C)C3C(O)C(OC(C)=O)C2(C)O1 (stereo not drawn) [7β-Acetoxy-6β-hydroxy-8,13-epoxy-labd-14-en-11-one]
[3]; 0.25 μg/ml
  Folds of Melanin Enhancement compared to control: 1.1 Folds
[3]; 0.5 μg/ml
  Folds of Melanin Enhancement compared to control: 1.13 Folds
[3]; 1 μg/ml
  Folds of Melanin Enhancement compared to control: 1.4* Folds
[3]; 2 μg/ml
  Folds of Melanin Enhancement compared to control: 2* Folds
[3]; 3 μg/ml
  Folds of Melanin Enhancement compared to control: 2.1* Folds
[3]; 5 μg/ml
  Folds of Melanin Enhancement compared to control: 2.2* Folds
[3]; 12 μg/ml
  Folds of Melanin Enhancement compared to control: 3* Folds
[3]
  melanin enhancement activity, comparison in words: comparable to that of active 3

## COc1c2occc2cc2ccc(=O)oc12 [Active 8-MOP, 8-Methoxy psoralen]
[3]; 0.25 μg/ml
  Folds of Melanin Enhancement compared to control: 1.12 Folds
[3]; 0.5 μg/ml
  Folds of Melanin Enhancement compared to control: 1.25 Folds
[3]; 1 μg/ml
  Folds of Melanin Enhancement compared to control: 1.4* Folds
[3]; 2 μg/ml
  Folds of Melanin Enhancement compared to control: toxic
[3]; 3 μg/ml
  Folds of Melanin Enhancement compared to control: toxic
[3]; 5 μg/ml
  Folds of Melanin Enhancement compared to control: toxic
[3]; 12 μg/ml
  Folds of Melanin Enhancement compared to control: toxic
[3]
  melanin enhancement activity, comparison in words: comparable to active III but inferior to active I

## C=C[C@@]1(C)CC(=O)[C@]2(O)[C@@]3(C)CCCC(C)(C)[C@@H]3[C@H](O)[C@H](OC(C)=O)[C@@]2(C)O1 [7β-Acetoxy-6β,9α-dihydroxy-8,13-epoxy-labd-14-en-11-one]
[3]; 0.25 μg/ml
  Folds of Melanin Enhancement compared to control: 1 Folds
[3]; 0.5 μg/ml
  Folds of Melanin Enhancement compared to control: 1.1 Folds
[3]; 1 μg/ml
  Folds of Melanin Enhancement compared to control: 1.5* Folds
[3]; 2 μg/ml
  Folds of Melanin Enhancement compared to control: 1.8* Folds
[3]; 3 μg/ml
  Folds of Melanin Enhancement compared to control: 2.2* Folds
[3]; 5 μg/ml
  Folds of Melanin Enhancement compared to control: 2.8* Folds
[3]; 12 μg/ml
  Folds of Melanin Enhancement compared to control: 3.2* Folds
[3]
  melanin enhancement activity, comparison in words: comparable to that of active 3

## O=C(CCCCc1ccc2c(c1)OCO2)N1CCCCC1 [tetrahydropiperine]
[3]; Example 4
  toxicity to cells: toxic to cells
[3]
  melanin enhancement activity, comparison in words: does not show significant melanin enhancement activity

## CC(C)=CCOc1c2occc2cc2ccc(=O)oc12 [Imperatorin]
[3]; 0.25 μg/ml
  Folds of Melanin Enhancement compared to control: 1.08 Folds
[3]; 0.5 μg/ml
  Folds of Melanin Enhancement compared to control: 1.25 Folds
[3]; 1 μg/ml
  Folds of Melanin Enhancement compared to control: 1.58* Folds
[3]; 2 μg/ml
  Folds of Melanin Enhancement compared to control: 1.78* Folds
[3]; 3 μg/ml
  Folds of Melanin Enhancement compared to control: 2.58* Folds
[3]; 5 μg/ml
  Folds of Melanin Enhancement compared to control: toxic
[3]; 12 μg/ml
  Folds of Melanin Enhancement compared to control: toxic
[3]
  melanin enhancement activity, comparison in words: comparable to active III but inferior to active I

## CC1(C)[C@@H](O[C@H]2O[C@H](C(=O)O)[C@@H](O)[C@H](O)[C@H]2O[C@@H]2O[C@H](C(=O)O)[C@@H](O)[C@H](O)[C@H]2O)CC[C@]2(C)[C@H]3C(=O)C=C4[C@@H]5C[C@@](C)(C(=O)O)CC[C@]5(C)CC[C@@]4(C)[C@]3(C)CC[C@@H]12 [Glycyrrhizin]
[3]; 0.25 μg/ml
  Folds of Melanin Enhancement compared to control: 1.82* Folds
[3]; 0.5 μg/ml
  Folds of Melanin Enhancement compared to control: 2.25* Folds
[3]; 1 μg/ml
  Folds of Melanin Enhancement compared to control: 2.58* Folds
[3]; 2 μg/ml
  Folds of Melanin Enhancement compared to control: 2.76* Folds
[3]; 3 μg/ml
  Folds of Melanin Enhancement compared to control: 2.88* Folds
[3]; 5 μg/ml
  Folds of Melanin Enhancement compared to control: 2.92* Folds
[3]; 12 μg/ml
  Folds of Melanin Enhancement compared to control: 2.95* Folds
[3]
  melanin enhancement activity, comparison in words: comparable to active III but inferior to active I

## C/C=C1\C(=O)C[C@H]2[C@@H]3CCC4=CC(=O)CC[C@]4(C)[C@H]3CC[C@]12C [Gugulsterone, Guggulsterone]
[3]; 0.25 μg/ml
  Folds of Melanin Enhancement compared to control: 1.15 Folds
[3]; 0.5 μg/ml
  Folds of Melanin Enhancement compared to control: 1.25 Folds
[3]; 1 μg/ml
  Folds of Melanin Enhancement compared to control: 1.28 Folds
[3]; 2 μg/ml
  Folds of Melanin Enhancement compared to control: 1.38 Folds
[3]; 3 μg/ml
  Folds of Melanin Enhancement compared to control: 2.38* Folds
[3]; 5 μg/ml
  Folds of Melanin Enhancement compared to control: 2.45* Folds
[3]; 12 μg/ml
  Folds of Melanin Enhancement compared to control: 2.5* Folds
[3]
  melanin enhancement activity, comparison in words: comparable to active III but inferior to active I
